Patent US10995117B2, “Peptide for skin regeneration or wound treatment and use thereof” (KINE SCIENCES CO., LTD., priority 2016, dated 2021)

Assays:
[1] = tested on: B16F10 cells; assay: Melanin production of melanoma cell line; type: cell-based; conditions: 24 hours
Protocol: The color of the skin is determined by an amount of melanin pigment produced by melanoma cells, and many studies have been conducted to improve abnormal pigmentation of the skin. Particularly, excessive pigmentation caused by chronic gashes is considered as a major medical problem, but no definitive treatment method has yet been developed. Thus, in Example 2, the production ability of melanin of a melanoma cell line according to the treatment of the peptide (peptide 1) prepared in Example 1 was evaluated by an experimental method disclosed in the existing document (Life Sci. 2013 Aug. 14; 93(5-6):226-32). The melanoma cell line, B16F10 cells, was cultured in a DMEM medium added with 10% fetal bovine […], and the cultured cells were divided into a 12 well-plate at a concentration of 1×10^5 cells/well. After the culture for 24 hours, α-MSH (10 uM) promoting melanin synthesis and the peptide (1, 10, and 100 ng/ml) of the present invention were treated and cultured again for 24 hours, added with 200 μl of a 1N NaOH solution after washing each well with PBS, and then dissolved at 100° C. for 30 minutes. Thereafter, the absorbance was measured at 405 nm with an ELISA reader to confirm the amount of melanin produced from the melanoma cell line. Meanwhile, an untreated group was used as a control group and a α-MSH-treated group was used as a positive control group.

[2] = tested on: human dermal fibroblasts; assay: Procollagen secretion of human dermal fibroblasts (PIP EIA Kit); type: cell-based; conditions: peptide 100, 10, 1 ng/ml, versus control group and TGF-treated group
Protocol: (§1) Collagen is a main ingredient of skin connective tissues, and increased collagen expression is essential in wound healing such as a gash or skin regeneration. As a result, in Example 2, the production ability of collagen of human dermal fibroblasts (HDF) according to the treatment of the peptide (peptide 1) prepared in Example 1 was evaluated by an experimental method disclosed in the existing document (J. Biol. Chem. 1993 268(14): 9941-9944). First, the human dermal fibroblasts were cultured in a DMEM medium added with 10% fetal bovine […] (FBS), and the cultured cells were divided into a 6-well plate at a concentration of 2×10^5 cell/well and cultured for 24 hours, and then the medium was replaced with 2% FBS. After 24 hours from this, the cells were treated with the peptide (100, 10, 1 ng/ml) of the present invention, and thereafter, an amount of procollagen secreted to the culture medium was measured by using a Procollagen Type I C-peptide (PIP) EIA Kit, RNA was extracted with a Trizol reagent, and then the expression of Col1A1 (collagen type I, alpha 1) mRNA of the human dermal fibroblasts was confirmed through real-time PCR. Meanwhile, a separately untreated group (Control) was used as a control group and a TGF-treated group (TGF-) was used as a positive control group.

[3] = target: T1, tyrosinase (Mus musculus, UniProt P11344); assay: Tyrosinase activity of melanoma cell line (L-DOPA); type: cell-based; conditions: 24 hours
T1 construct: endogenous in cells; host or cells: B16F10 melanoma cells stimulated with alpha-MSH; Triton X-100 lysate supernatant
T1 sequence (P11344 19-533): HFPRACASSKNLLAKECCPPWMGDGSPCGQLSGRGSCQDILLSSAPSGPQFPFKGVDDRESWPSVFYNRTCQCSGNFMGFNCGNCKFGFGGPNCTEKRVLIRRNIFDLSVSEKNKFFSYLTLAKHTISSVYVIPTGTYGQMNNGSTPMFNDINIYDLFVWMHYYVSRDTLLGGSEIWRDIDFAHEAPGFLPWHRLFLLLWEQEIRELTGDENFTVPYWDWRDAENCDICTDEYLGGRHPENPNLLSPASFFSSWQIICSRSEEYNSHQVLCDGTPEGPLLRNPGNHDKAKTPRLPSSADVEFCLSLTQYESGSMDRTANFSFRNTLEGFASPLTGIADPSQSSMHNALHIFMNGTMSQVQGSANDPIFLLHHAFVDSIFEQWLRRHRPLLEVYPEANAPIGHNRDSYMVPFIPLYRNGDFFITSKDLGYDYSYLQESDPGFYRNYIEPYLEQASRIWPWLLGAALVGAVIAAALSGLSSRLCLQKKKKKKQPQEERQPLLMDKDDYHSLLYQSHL
Protocol: Tyrosinase as a rate-regulating enzyme that catalyzes the reaction in the melanin biosynthesis process was known to play a crucial role in regulating the amount of melanin in the cells. Thus, in Example 4, the tyrosinase activity of the melanoma cell line according to the treatment of the peptide (peptide 1) prepared in Example 1 was evaluated by an experimental method disclosed in the existing document (J. Dermatol. Sci. Vol. 57 (2010) 170-177). The melanoma cell line, B16F10 cells, was divided into a 12 well-plate at a concentration of 1×10^5 cells/well and cultured for 24 hours, and then treated with α-MSH ([…]) and the peptide of the present invention (1, 10, 100 ng/ml), cultured for 24 hours again, and then was washed with PBS and suspended in a 50 mM phosphate buffer (pH 6.8) containing 1% Triton X-100 after washing each well with PBS. After vortexing, the cells was frozen at […] for 30 minutes, dissolved at room temperature, and centrifuged at 1000 g for 10 minutes, and then 40 μl of a supernatant and 100 μl of 10 mM L-DOPA were added to a 96 well-plate and reacted at 37° C. Thereafter, the absorbance was measured at 405 nm with an ELISA reader to confirm the tyrosinase activity of the melanoma cell line. Meanwhile, a separate untreated group was used as a control group and a α-MSH-treated group and a Kojic acid-treated group were used as a positive control group.

[4] = tested on: Col1A1 (collagen type I, alpha 1) mRNA; assay: Col1A1 mRNA expression of human dermal fibroblasts (real-time PCR); type: cell-based; conditions: at a concentration of 10 ng/ml or more
Protocol: as §1

[5] = tested on: HaCaT cells; assay: Scratch assay, in vitro wound healing model; type: cell-based, human; conditions: for wound size (quantified) / migration of HaCaT cells: peptide 1 or 10 ng/ml; for migration of HaCaT cells: Mitomycin C pretreated
Protocol: In Example 5, the wound treatment effect according to the treatment of the peptides (peptides 1 and 2) prepared in Example 1 was confirmed through a scratch assay. A human epithelial cell line, HaCaT cells was cultured for 2 hours by adding Mitomycin C (10 ug/ml) in a serum-free medium to […]. After the cells were treated with the peptide (1 or 10 ng/ml) and TGF-β (1 ng/ml) as a positive control group in a medium added with 10% FBS, the migration ability of cells was observed over time and the reduction in wound size was quantified.

[6] = tested on: Balb/c nude mouse; assay: Acute wound animal model, histological change (H&E staining); type: in vivo; conditions: skin tissue on day 5 after acute wound
Protocol: (§2) After an 8-week-old Balb/c nude mouse was anesthetized with Avertin (2.5%), the skin of the animal's back was cut by using a circular punch having a 10 mm diameter to induce an acute wound. The peptide was treated (500 ng/one time) at the site of excision total 5 times at 24-hour intervals at the site of excision and reduction of the wound area over time was measured for 14 days and an EGF was used as a positive control group (10 ug/one time). In this case, the peptide was treated with 20% pluronic F-127 (PBS) in a mixture state and the wound sizes over time were measured and digitized using a digital camera and an ImageJ program and compared with each other.
An acute wound was induced in the same manner as in Example 6-1, and the skin tissue was cut on 5 day after the acute wound was induced to prepare tissue fragments. Thereafter, histological changes according to peptide treatment were observed by H&E staining and observing the H&E staining by a microscope. Meanwhile, an EGF was used as a positive control group.

[7] = tested on: Balb/c nude mouse; assay: Acute wound animal model, change in wound size; type: in vivo; conditions: 10 mm punch wound, 500 ng/one time, 5 times at 24-hour intervals, 14 days
Protocol: as §2

Substance	production amount of melanin ([1]; α-MSH (10 uM) plus peptide 1, 10, 100 ng/ml, no significant difference from non-α-MSH-treated group)	secretion amount of procollagen [2]	tyrosinase activity of the melanoma cell line ([3]; B16F10 cells, 10, 100 ng/ml, no significant difference from Kojic acid-treated group)	expression of Col1A1 [4]	wound size (quantified) ([5]; HaCaT cells)	migration of HaCaT cells [5]	epithelialization [6]	thicknesses of epidermis and dermis layers [6]	amount of melanin produced ([1]; α-MSH (10 uM) alone)	tyrosinase activity of the melanoma cell line ([3]; B16F10 cells)	wound reduction effect at low concentration ([5]; HaCaT cells, 1 ng/ml)	wound size effect compared with peptide 1 ([5]; HaCaT cells, 1 or 10 ng/ml)	wound treatment effect compared with peptide 1 [7]
REGRT (peptide 1)	greatly reduced	increased compared to the control group and the TGF-treated group	greatly reduced	significantly increased	significant reduction	increased in a peptide concentration-dependent manner	actively progressed	larger than those of a PBS negative control group					
α-MSH [reference compound]									a large amount of melanin was produced	greatly increased			
REGRTREGRT (peptide 2)					significant reduction	increased in a peptide concentration-dependent manner	actively progressed	larger than those of a PBS negative control group			definite wound reduction effect	more remarkable	excellent effect as compared to the case treated with the peptide 1
